Source: ChEMBL document CHEMBL3868609, “[2.2.1]-Bicyclic sultams as potent androgen receptor antagonists” (Bioorg Med Chem Lett, 2016)
Activity calls are given as the source filed them. No cut-off for these calls is given here.

Key:
Androgen receptor [1] = biological target: T1, Androgen receptor (Homo sapiens, UniProt P10275); assay: Displacement of [3H]DHT from androgen receptor in human MDA-MB-453 cells; assay type: cell-based
T1 sequence (P10275 whole entry): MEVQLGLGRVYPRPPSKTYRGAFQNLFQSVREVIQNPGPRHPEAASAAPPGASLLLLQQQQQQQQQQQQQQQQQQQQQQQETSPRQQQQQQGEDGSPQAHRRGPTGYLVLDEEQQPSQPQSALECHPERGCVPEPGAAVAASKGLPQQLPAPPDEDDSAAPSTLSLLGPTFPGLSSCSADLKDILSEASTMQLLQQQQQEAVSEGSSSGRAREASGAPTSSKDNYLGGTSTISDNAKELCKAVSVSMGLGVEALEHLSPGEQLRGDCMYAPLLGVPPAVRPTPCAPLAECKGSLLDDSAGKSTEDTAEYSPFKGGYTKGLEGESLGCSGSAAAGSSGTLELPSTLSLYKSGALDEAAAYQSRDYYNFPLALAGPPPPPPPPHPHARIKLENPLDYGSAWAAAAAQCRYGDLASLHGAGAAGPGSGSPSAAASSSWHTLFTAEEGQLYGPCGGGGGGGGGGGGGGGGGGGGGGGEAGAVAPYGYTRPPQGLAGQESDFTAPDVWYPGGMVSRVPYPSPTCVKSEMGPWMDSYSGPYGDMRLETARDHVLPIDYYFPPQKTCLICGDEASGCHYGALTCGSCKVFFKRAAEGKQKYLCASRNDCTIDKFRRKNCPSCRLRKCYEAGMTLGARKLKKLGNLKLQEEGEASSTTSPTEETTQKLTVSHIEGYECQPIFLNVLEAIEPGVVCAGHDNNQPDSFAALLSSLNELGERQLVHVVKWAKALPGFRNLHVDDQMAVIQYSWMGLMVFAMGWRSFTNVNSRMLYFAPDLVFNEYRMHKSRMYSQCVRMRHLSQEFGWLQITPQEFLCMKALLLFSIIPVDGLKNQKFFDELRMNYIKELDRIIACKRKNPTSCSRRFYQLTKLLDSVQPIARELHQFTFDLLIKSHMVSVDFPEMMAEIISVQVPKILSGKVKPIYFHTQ

Androgen receptor [2] = biological target: T1, Androgen receptor; assay: Antagonist activity at androgen receptor in human MDA-MB-453 cells assessed as inhibition of testosterone-induced transactivation; assay type: cell-based
Rattus norvegicus [3] = assay: In vivo antagonist activity at androgen receptor in immature rat prostate weight model assessed as testosterone propionate-induced weight of seminal vesicles over full body weight at 10 mg/kg, po qd administered for 4 days relative to testosterone propionate treated control; assay type: functional; parameters: scale not given: the % may be the effect or the level left
[4] = Plasma concentration in immature rat prostate weight model at 10 mg/kg, po qd administered for 4 days measured 2 hrs post last dose on day 4; assay type: ADME, organism-based
[5] = Antitumor activity against bicalutamide-resistant human CWR22-BMSLD1 cells xenografted in BALB/c athymic mouse assessed as tumor growth inhibition at 150 mg/kg, po qd for 20 days measured on last day of dosing relative to control; assay type: functional; settings: 480 h, read-out: TGI
Mus musculus = assay: Toxicity in BALB/c athymic mouse xenografted with bicalutamide-resistant human CWR22-BMSLD1 cells at 150 mg/kg, po qd for 20 days; assay type: organism-based; settings: in vivo, 480 h
Rattus norvegicus [6] = assay: In vivo antagonist activity at androgen receptor in immature rat prostate weight model assessed as testosterone propionate-induced weight of seminal vesicles over full body weight at 15 mg/kg, po qd administered for 4 days relative to testosterone propionate treated control; assay type: functional; parameters: scale not given: the % may be the effect or the level left
[7] = Plasma concentration in immature rat prostate weight model at 15 mg/kg, po qd administered for 4 days measured 2 hrs post last dose on day 4; assay type: ADME, organism-based
[8] = AUC (0 to 24 hrs) in BALB/c athymic mouse xenografted with bicalutamide-resistant human CWR22-BMSLD1 cells at 78 mg/kg, po; assay type: ADME, organism-based; parameters: time < 24 hr, dose 78 mg/kg, route oral; settings: in vivo
Rattus norvegicus [9] = assay: In vivo antagonist activity at androgen receptor in immature rat prostate weight model assessed as testosterone propionate-induced weight of seminal vesicles over full body weight at 30 mg/kg, po qd administered for 4 days relative to testosterone propionate treated control; assay type: functional; parameters: scale not given: the % may be the effect or the level left
[10] = Plasma concentration in immature rat prostate weight model at 30 mg/kg, po qd administered for 4 days measured 2 hrs post last dose on day 4; assay type: ADME, organism-based
Rattus norvegicus [11] = assay: In vivo antagonist activity at androgen receptor in immature rat prostate weight model assessed as testosterone propionate-induced weight of seminal vesicles over full body weight at 25 mg/kg, po qd administered for 4 days relative to testosterone propionate treated control; assay type: functional; parameters: scale not given: the % may be the effect or the level left
[12] = Plasma concentration in immature rat prostate weight model at 25 mg/kg, po qd administered for 4 days measured 2 hrs post last dose on day 4; assay type: ADME, organism-based
CWR22-BMSLD1 = assay: Antitumor activity against bicalutamide-resistant human CWR22-BMSLD1 cells xenografted in BALB/c athymic mouse assessed as tumor stasis at 150 mg/kg, po qd for 20 days; assay type: functional, organism-based
[13] = Drug metabolism in mouse liver microsomes assessed as oxidative metabolite formation; assay type: ADME

SMILES | Ki (Androgen receptor [1]) [nM] | IC50 (Androgen receptor [2]) [nM] | AUC(0-t) at 24 h [8] [µM·h] | other results
C[C@@]12[C@@H]3CC[C@@H](C3O)[C@@H]1CN(c1ccc(C#N)c(C(F)(F)F)c1)S2(=O)=O (stereo in doubt; 17) | 48 | 327 | – | –
CC(O)(CS(=O)(=O)c1ccc(F)cc1)C(=O)Nc1ccc(C#N)c(C(F)(F)F)c1 (centres undefined) [BICALUTAMIDE] | – | – | – | Activity (Rattus norvegicus [3]): 41%; concentration at 2 h [4]: 9500 nM; inhibition in vivo at 150 mg/kg [5]: 39%; Activity (Mus musculus): Non-Toxic
CNC(=O)[C@@]12[C@@H]3CC[C@@H](C3)[C@@H]1CN(c1ccc(C#N)c(C(F)(F)F)c1)S2(=O)=O | 3 | 44 | > 2 | Activity (Rattus norvegicus [6]): 51%; concentration at 2 h [7]: 7250 nM
C[C@@]12[C@@H](CN(c3ccc(C#N)c(C(F)(F)F)c3)S1(=O)=O)[C@H]1C[C@H](F)[C@@H]2C1 | 8 | 91 | > 2 | Activity (Rattus norvegicus [6]): 65%; concentration at 2 h [7]: 2800 nM
C[C@@]12[C@@H](CN(c3ccc(C#N)c(C(F)(F)F)c3)S1(=O)=O)[C@H]1C[C@H](O)[C@@H]2C1 | 3 | 106 | > 2 | Activity (Rattus norvegicus [9]): 60%; concentration at 2 h [10]: 790 nM
C[C@@]12[C@H]3C[C@H]([C@H](O)C3)[C@@H]1CN(c1ccc(C#N)c(C(F)(F)F)c1)S2(=O)=O | 28 | 430 | > 2 | Activity (Rattus norvegicus [9]): 58%
C[C@@]12[C@@H]3C=C[C@@H](C3)[C@@H]1CN(c1ccc(C#N)c(C(F)(F)F)c1)S2(=O)=O | 2 | 30 | – | Activity (Rattus norvegicus [11]): 35%; concentration at 2 h [12]: 50 nM; inhibition in vivo at 150 mg/kg [5]: 87%; Activity (CWR22-BMSLD1): Active; Activity (Mus musculus): Non-Toxic; Drug metabolism [13]: Metabolite_Detected
CCS(=O)(=O)N[C@@H]1C[C@@]2(C)O[C@]1(C)[C@@H]1C(=O)N(c3ccc(C#N)c(C(F)(F)F)c3)C(=O)[C@@H]12 | – | – | – | Activity (Rattus norvegicus [3]): 26%; concentration at 2 h [4]: 4000 nM
C[C@@]12[C@@H]3CC[C@@H](C3)[C@@H]1CN(c1ccc(C#N)c(C(F)(F)F)c1)S2(=O)=O | 3 | 73 | – | –
C[C@@]12[C@@H]3CC[C@@H](C3O)[C@@H]1CN(c1ccc(C#N)c(C(F)(F)F)c1)S2(=O)=O (stereo in doubt; 15) | 106 | 444 | – | –
C[C@@]12[C@@H]3CC[C@@H](C3=O)[C@@H]1CN(c1ccc(C#N)c(C(F)(F)F)c1)S2(=O)=O | 8 | 67 | – | –
N#Cc1ccc(N2C[C@H]3[C@H]4CC[C@H](C4)[C@H]3S2(=O)=O)cc1C(F)(F)F | 3 | 130 | – | –
N#Cc1ccc(N2C[C@H]3[C@H]4CC[C@H](C4)[C@@]3(C(N)=O)S2(=O)=O)cc1C(F)(F)F | 3 | 55 | > 2 | Activity (Rattus norvegicus [6]): 55%
N#Cc1ccc(N2C[C@@H]3[C@@H]([C@@H]4C=C[C@H]3C4)S2(=O)=O)cc1C(F)(F)F | 12 | 219 | – | –
CNC(=O)[C@@]12[C@@H](CN(c3ccc(C#N)c(C(F)(F)F)c3)S1(=O)=O)[C@H]1C[C@H](F)[C@@H]2C1 | 5 | 57 | 0.0031 | Activity (Rattus norvegicus [6]): 30%; concentration at 2 h [7]: 2900 nM
